Test results from US20140107100A1, “Benzoxazepines as Inhibitors of PI3K/mTOR and Methods of Their Use and Manufacture” (EXELIXIS, INC., priority 2010, published 2014).

Each compound was assayed against mTOR/GbL/Raptor (mTORC1) (Homo sapiens, UniProt P42345) (assay: mTOR/GbL/Raptor (mTORC1) ELISA assay, phosphorylation of 4E-BP1). Details: 0.2 nM mTORC1, 40 uM ATP, 50 nM NHis-tagged 4E-BP1, 120 minutes; read-out: IC50 in this assay (mTORC1 ELISA).
Assay type: biochemical
Procedure: The measurement of mTORC1 enzyme activity was performed in an ELISA assay format following the phosphorylation of 4E-BP1 protein. All experiments were performed in the 384-well format. Generally, 0.5 μL DMSO containing varying concentrations of the test Compound was mixed with 15 μL enzyme solution. Kinase reactions were initiated with the addition of 15 μL of substrates-containing solution. The assay conditions were-as follows; 0.2 nM mTORC1, 40 uM ATPand 50 nM NHis-tagged4E-BP1 in20 mM Hepes, pH 7.2, 1 mM DTT, 50 mMNaC1, 10 mM MnC12, 0.02 mg/mL BSA, 0.01% CHAPS, 50 mM β-glycerophosphate. Following an incubation of 120 minutes at anibient temperature, 20 μL of the reaction volume was transferred to a Ni-Chelate-coated 384-well plate. The binding step of the 4E-BP1 protein proceeded for 60 minutes, followed by washing 4 times each with 50 uL of Tris-buffered saline solution (TBS). Anti-phospho-4E-BPl rabbit-IgG ([…]. 1:5000) in 5% BSA-TBST (0.2% Tween-20 in TBS) was added and further incubated for 60 minutes. Incubation with a secondary HRP-tagged anti-IgG was similarly performed after washing off the primary antibody (4 washes of 50 μL). Following the final wash step with TBST, 20 μL of SuperSignal ELISA Femto (Pierce Biotechnology) was added and the luminescence measured using an En Vision plate reader.
For `Cc1cnc(N2CCOc3c(C)cc(-c4cnc5sc(N)nc5c4)cc3C2)nc1N` [Compound 37, 6-[4-(4-amino-5-methylpyrimidin-2-yl)-9-methyl-2,3,4,5-tetrahydro-1,4-benzoxazepin-7-yl][1,3]thiazolo[5,4-b]pyridin-2-amine], the IC50 was 100 to 500 nM.
`Cc1cc(-c2ccc(N)nc2)cc2c1OCCN(c1nc(N)nc(C)c1C(C)C)C2` [Compound 24, 4-[7-(6-aminopyridin-3-yl)-9-methyl-2,3-dihydro-1,4-benzoxazepin-4(5H)-yl]-6-methyl-5-(1-methylethyl)pyrimidin-2-amine] gave an IC50 of 100 to 500 nM.
With `Cc1nc(C)c(C(C)C)c(N2CCOc3c(C)cc(-c4cnc5sc(N)nc5c4)cc3C2)n1` [Compound 104, 6-{4-[2,6-dimethyl-5-(1-methylethyl)pyrimidin-4-yl]-9-methyl-2,3,4,5-tetrahydro-1,4-benzoxazepin-7-yl}[1,3]thiazolo[5,4-b]pyridin-2-amine] the IC50 was ≤ 100 nM.
With `Cc1cc(-c2cnc3nc[nH]c3c2)cc2c1OCCN(c1nc(N)nc(C)c1C(C)C)C2` [Compound 163, 4-[7-(1H-imidazo[4,5-b]pyridin-6-yl)-9-methyl-2,3-dihydro-1,4-benzoxazepin-4(5H)-yl]-6-methyl-5-(1-methylethyl)pyrimidin-2-amine] the IC50 was ≤ 100 nM.
With `Cc1cc(-c2nnc(N)s2)cc2c1OCCN(c1nc(CNCC(F)F)nc(C)c1C(C)C)C2` [Compound 169, 5-{4-[2-{[(2,2-difluoroethyl)amino]methyl}-6-methyl-5-(1-methylethyl)pyrimidin-4-yl]-9-methyl-2,3,4,5-tetrahydro-1,4-benzoxazepin-7-yl}-1,3,4-thiadiazol-2-amine] the IC50 was ≤ 100 nM.
For `Cc1cc(-c2cnc3sc(N)nc3c2)cc2c1OCCN(c1nc(C3CCCN3)nc(C)c1C(C)C)C2` (stereo not drawn) [Compound 146, 6-{9-methyl-4-[6-methyl-5-(1-methylethyl)-2-pyrrolidin-2-ylpyrimidin-4-yl]-2,3,4,5-tetrahydro-1,4-benzoxazepin-7-yl}[1,3]thiazolo[5,4-b]pyridin-2-amine], the IC50 was ≤ 100 nM.
`Cc1cc(-c2cnc3sc(N)nc3c2)cc2c1OCCN(c1nc(C3CNC3)nc(C)c1C(C)C)C2` [Compound 133, 6-{4-[2-azetidin-3-yl-6-methyl-5-(1-methylethyl)pyrimidin-4-yl]-9-methyl-2,3,4,5-tetrahydro-1,4-benzoxazepin-7-yl}[1,3]thiazolo[5,4-b]pyridin-2-amine] was tested, and the IC50 was ≤ 100 nM.
Work on `COc1cc(-c2cnc3sc(N)nc3c2)cc2c1OCCN(c1nc(N)nc(C)c1C(C)C)C2` [Compound 140, 6-{4-[2-amino-6-methyl-5-(1-methylethyl)pyrimidin-4-yl]-9-(methyloxy)-2,3,4,5-tetrahydro-1,4-benzoxazepin-7-yl}[1,3]thiazolo[5,4-b]pyridin-2-amine] yielded an IC50 of 100 to 500 nM.
`CCn1cc(-c2cc(C)c3c(c2)CN(c2nc(N)nc(C)c2C(C)C)CCO3)cn1` [Compound 111, 4-[7-(1-ethyl-1H-pyrazol-4-yl)-9-methyl-2,3-dihydro-1,4-benzoxazepin-4(5H)-yl]-6-methyl-5-(1-methylethyl)pyrimidin-2-amine] was tested, and the IC50 was 100 to 500 nM.
In the case of `COCC(C)c1c(C)nc(C)nc1N1CCOc2c(C)cc(-c3cnc4sc(N)nc4c3)cc2C1` (stereo not drawn) [Compound 153, 6-(4-{2,6-dimethyl-5-[1-methyl-2-(methyloxy)ethyl]pyrimidin-4-yl}-9-methyl-2,3,4,5-tetrahydro-1,4-benzoxazepin-7-yl)[1,3]thiazolo[5,4-b]pyridin-2-amine], the IC50 is reported as ≤ 100 nM.
`Cc1cc(-c2cnc3sc(N)nc3c2)cc2c1OCCN(c1nc(N)nc(C)c1C(C)C)C2` [Compound 3, 6-{4-[2-amino-6-methyl-5-(1-methylethyl)pyrimidin-4-yl]-9-methyl-2,3,4,5-tetrahydro-1,4-benzoxazepin-7-yl}[1,3]thiazolo[5,4-b]pyridin-2-amine] was tested, and the IC50 was ≤ 100 nM.
For `Cc1cc(-c2nnc(N)s2)cc2c1OCCN(c1nc(N)nc(C)c1C(C)C)C2` [Compound 137, 4-[7-(5-amino-1,3,4-thiadiazol-2-yl)-9-methyl-2,3-dihydro-1,4-benzoxazepin-4(5H)-yl]-6-methyl-5-(1-methylethyl)pyrimidin-2-amine], the IC50 was ≤ 100 nM.
With `Cc1cc(-c2cnc3sc(N)nc3c2)cc2c1OCCN(c1nc(N)ccc1C#N)C2` [Compound 55, 6-amino-2-[7-(2-amino[1,3]thiazolo[5,4-b]pyridin-6-yl)-9-methyl-2,3-dihydro-1,4-benzoxazepin-4(5H)-yl]pyridine-3-carbonitrile] the IC50 was ≤ 100 nM.
In the case of `CCc1c(Cl)nc(CN(C)C)nc1N1CCOc2c(C)cc(-c3cnc4sc(N)nc4c3)cc2C1` [Compound 61, 6-(4-{6-chloro-2-[(dimethylamino)methyl]-5-ethylpyrimidin-4-yl}-9-methyl-2,3,4,5-tetrahydro-1,4-benzoxazepin-7-yl)[1,3]thiazolo[5,4-b]pyridin-2-amine], the IC50 is reported as ≤ 100 nM.
For `CCc1c(Cl)nc(N)nc1N1CCOc2c(C)cc(-c3cnc4sc(N)nc4c3)cc2C1` [Compound 54, 6-[4-(2-amino-6-chloro-5-ethylpyrimidin-4-yl)-9-methyl-2,3,4,5-tetrahydro-1,4-benzoxazepin-7-yl}[1,3]thiazolo[5,4-b]pyridin-2-amine], the IC50 was ≤ 100 nM.
In the case of `Cc1cc(-c2cnc3sc(N)nc3c2)cc2c1OCCN(c1nc(CN)nc(C)c1C(C)C)C2` [Compound 134, 6-{4-[2-(aminomethyl)-6-methyl-5-(1-methylethyl)pyrimidin-4-yl]-9-methyl-2,3,4,5-tetrahydro-1,4-benzoxazepin-7-yl}[1,3]thiazolo[5,4-b]pyridin-2-amine], the IC50 is reported as ≤ 100 nM.
In the case of `Cc1nc2ncc(-c3cc(C)c4c(c3)CN(c3nc(CNCC(F)F)nc(C)c3C(C)C)CCO4)cc2[nH]1` [Compound 166, 2,2-difluoro-N-({4-methyl-5-(1-methylethyl)-6-[9-methyl-7-(2-methyl-1H-imidazo[4,5-b]pyridin-6-yl)-2,3-dihydro-1,4-benzoxazepin-4(5H)-yl]pyrimidin-2-yl}methyl)ethanamine], the IC50 is reported as ≤ 100 nM.
With `C#Cc1c(C)nc(N)nc1N1CCOc2c(C)cc(-c3cnc4sc(N)nc4c3)cc2C1` [Compound 145, 6-[4-(2-amino-5-ethynyl-6-methylpyrimidin-4-yl)-9-methyl-2,3,4,5-tetrahydro-1,4-benzoxazepin-7-yl][1,3]thiazolo[5,4-b]pyridin-2-amine] the IC50 was ≤ 100 nM.
`COc1ccc(-c2cc(C)c3c(c2)CN(c2nc(N)nc(C)c2C(C)C)CCO3)cn1` [Compound 74, 4-methyl-5-(1-methylethyl)-6-{9-methyl-7-[6-(methyloxy)pyridin-3-yl]-2,3-dihydro-1,4-benzoxazepin-4(5H)-yl}pyrimidin-2-amine] showed an IC50 of 100 to 500 nM.
In the case of `Cc1cc(-c2cnc3sc(N)nc3c2)cc2c1OCCN(c1nc(C(F)(F)F)nc(C)c1C(C)C)C2` [Compound 128, 6-{9-methyl-4-[6-methyl-5-(1-methylethyl)-2-(trifluoromethyl)pyrimidin-4-yl]-2,3,4,5-tetrahydro-1,4-benzoxazepin-7-yl}[1,3]thiazolo[5,4-b]pyridin-2-amine], the IC50 is reported as ≤ 100 nM.
With `Cc1cc(-c2cnc3sc(N)nc3c2)cc2c1OCCN(c1nc(CN(C)C)ncc1C(C)C)C2` [Compound 58, 6-(4-{2-[(dimethylamino)methyl]-5-(1-methylethyl)pyrimidin-4-yl}-9-methyl-2,3,4,5-tetrahydro-1,4-benzoxazepin-7-yl)[1,3]thiazolo[5,4-b]pyridin-2-amine] the IC50 was ≤ 100 nM.
`COCCc1c(C)nc(N)nc1N1CCOc2c(C)cc(-c3cnc4sc(N)nc4c3)cc2C1` [Compound 16, 6-(4-{2-amino-6-methyl-5-[2-(methyloxy)ethyl]pyrimidin-4-yl}-9-methyl-2,3,4,5-tetrahydro-1,4-benzoxazepin-7-yl)[1,3]thiazolo[5,4-b]pyridin-2-amine] was tested, and the IC50 was ≤ 100 nM.
In the case of `Cc1cc(-c2ccncc2)cc2c1OCCN(c1nc(N)nc(C)c1C(C)C)C2` [Compound 75], the IC50 is reported as 100 to 500 nM.
Compound `Cc1cc(-c2cnc3sc(N)nc3c2)cc2c1OCCN(c1ncc(C(N)=O)c(N)n1)C2` [Compound 27, 4-amino-2-[7-(2-amino[1,3]thiazolo[5,4-b]pyridin-6-yl)-9-methyl-2,3-dihydro-1,4-benzoxazepin-4(5H)-yl]pyrimidine-5-carboxamide] has an IC50 of 100 to 500 nM.
With `Cc1cc(-c2nnc(N)s2)cc2c1OCCN(c1ncncc1C(C)C)C2` [Compound 177, 5-{9-methyl-4-[5-(1-methylethyl)pyrimidin-4-yl]-2,3,4,5-tetrahydro-1,4-benzoxazepin-7-yl}-1,3,4-thiadiazol-2-amine] the IC50 was ≤ 100 nM.
For `COc1nc(C)c(C(C)C)c(N2CCOc3c(C)cc(-c4cnc5sc(N)nc5c4)cc3C2)n1` [Compound 152, 6-{9-methyl-4-[6-methyl-5-(1-methylethyl)-2-(methyloxy)pyrimidin-4-yl]-2,3,4,5-tetrahydro-1,4-benzoxazepin-7-yl}[1,3]thiazolo[5,4-b]pyridin-2-amine], the IC50 was ≤ 100 nM.
In the case of `Cc1cc(-c2cnc3sc(N)nc3c2)cc2c1OCCN(c1nccnc1C#N)C2` [Compound 34, 3-[7-(2-amino[1,3]thiazolo[5,4-b]pyridin-6-yl)-9-methyl-2,3-dihydro-1,4-benzoxazepin-4(5H)-yl]pyrazine-2-carbonitrile], the IC50 is reported as ≤ 100 nM.
